From US20230333087A1, “METHODS FOR MONITORING PATIENT RESPONSE TO TREATMENT OF RETINAL OXIDATIVE DISEASES” (BioJiva LLC, priority 2022, published 2023)

How the values were obtained:
[1] = test system: iron-induced retinal autofluorescence and degeneration; assay: Iron-induced retinal autofluorescence and degeneration, cSLO and OCT imaging 1 week after intravitreal iron; format: in vivo, C57BL/6J mice; conditions: DHA diet versus previous study with regular chow without DHA (LabDiet 5001)
Procedure: To evaluate the protective effect of 0.25% D-DHA diet, confocal scanning laser ophthalmoscopy (cSLO) and optical coherence tomography (OCT) were employed for in vivo imaging at 1 week after injections. For the cSLO imaging, both blue autofluorescence (BAF) and near-infra autofluorescence (IRAF) were performed.
Adult male wild-type C57BL/6J mice (Stock No.000664, Jackson Labs, Bar Harbor, ME, USA) were housed in standard conditions under cyclic light (12 h:12 h light-dark cycle). Mice had ad libitum access to water and food. Beginning at 2 mo of age, mice were placed on the AIN93G diet described above, supplemented with 0.25% D-DHA or DHA (control diet) for 1 week, 2 weeks, 3 weeks, or 4 weeks prior to the intravitreal injection. Mice were given an intravitreal injection of 1 µl 0.5 mM ferric ammonium citrate diluted in 0.9% NaCl (saline) (MP Biomedicals LLC, Santa Ana, CA) or
1 µl of saline as control. Intravitreal injections were performed as previously described ^54. Mice were continued on respective diet until their final evaluation. All housing and procedures were performed according to the NIH Guide for the Care and Use of Experimental Animals and approved by the University of Pennsylvania Animal Care and Use Committee.
Mice were given general anesthesia and placed on a platform. Pupils were dilated with 1% tropicamide saline solution (Akorn, Inc., Lake Forest, IL). Optical coherence tomography (OCT) imaging was performed for visualization of the retinal structure by using a Bioptigen
Envisu (R2200, Bioptigen Inc., Durham, NC, USA) coupled to a broadband LED light source (T870-HP, Superlum Diodes, Ltd, Ireland). Confocal scanning laser ophthalmoscopy (cSLO) (Spectralis HRA, Heidelberg Engineering, Franklin, MA, USA) was used for visualization of retinal AF using BluePeak™ or simply blue AF (488 nm excitation) and near-infrared AF (787 nm excitation) imaging modes.

[2] = test system: human RPE cell line ARPE-19; conditions: high-intensity light exposure; cited from earlier work
LPO and cell death = conditions: FRDA, INAD, PSP; cited from earlier work
[3] = clinical trials; cited from earlier work
[4] = test system: 4-HNE and 4-HHE formation; conditions: present in lipid bilayers; cited from earlier work

For “docosahexaenoic acid [DHA, reference compound]”, the “severity of IVT iron induced damage” value [1] is listed as “less severe” and the “oxidative stress and LPO” value [2] is listed as “increased oxidative stress and LPO”.

In the case of `[2H]C([2H])(/C=C\CCCCC)/C=C\CCCCCCCC(=O)OCC` [RT001, 11,11-D2-Lin], the “LPO and cell death” value (LPO and cell death) is listed as “inhibited LPO and rescued cell death” and the safety and tolerability [3] is listed as “notable safety and tolerability”.

For `[2H]C([2H])(/C=C\CCCCC)/C=C\CCCCCCCC(=O)O` [D2-linoleic acid], the “4-HNE and 4-HHE formation” value [4] is listed as “downregulated not just 4-HNE but also 4-HHE formation”.
